Source: patent US5424303A, “Substituted aminophosphonate derivatives, process for their preparation and pharmaceutical compositions containing them” (Symphar SA, priority 1992, dated 1995)

Legend:
[1] = tested on: plasma cholesterol; test: Hypocholesterolemic activity, plasma cholesterol in mice fed test compound in diet; assay type: in vivo, OF1 strain mice; conditions: for plasma cholesterol values as compared to control: same experimental conditions, reference drugs; for change in vivo at 180 mg/kg/day: Mus musculus, feed or water, 240 h, read-out: Plasma Cholesterol (% Control), 0.1% compound in food, 10 days, ca. 180 mg/kg daily, mouse; for decrease plasma cholesterol by: 0.1% in food
Experimental: A. Hypocholesterolemic activity
Mouse fed a normal diet is a convenient model which was proposed by several authors (P. Olivier et al, Atherosclerosis 70, 107-114, 1988) ,for the screening for hypocholesterolemic drugs. OF1 strain mice (Iffa Credo) weighing between 25 and 35 g were divided into 5 groups of 5 animals each, four groups received the test compounds and the fifth group served as control. The test compounds were dissolved in diethyl ether. The ether solution was added to food to obtain a final concentration of 0.1%. compound in food. Ether was then evaporated at room temperature. The animals were fed for 10 days, the dally food intake corresponds to ca. 180 mg/kg. After an overnight fast, they were sacrificed by decapitation under ether anesthesia. Blood samples were collected using EDTA as anticoagulant.
Plasma cholesterol was measured by an enzymatic test (DIAMED, Morat, Switzerland). The mean values of each group receiving the test or reference compounds were expressed as percent of mean value of the contemporary control.

[2] = tested on: lipid peroxidation (rat liver homogenate); test: Antioxidant activity, inhibition of iron induced lipid peroxidation in liver homogenate; assay type: biochemical, Wistar rat; conditions: FeSO4, 37° C., 2 h; <25 μM where IC50 was not determined
Experimental: The liver of a Wistar rat anesthetized with ether was collected and homogenized in 4 volumes of phosphate buffer (+4° C., pH 7.4) by means of a Potter. After centrifugation at 2000 rpm for 10 min the supernatant obtained was kept at +4° C. Lipid peroxidation was carried out in presence of FeSOhd according to the method described by A. T. Quitaniha et at, Ann.
The mixture contained 1.7 ml phosphate buffer, 0.2 ml homogenate and 0.1 ml of a 2 mM FeSO4 solution. The test compounds were added in a volume of 61 μl of ethanol or DMSO. Oxydation was carried out at 37° C. for 2 h and was stopped by the addition of 20 μl of 2% ethanolic solution of BHT.

SMILES	IC50 [2] [µM]	change in vivo at 180 mg/kg/day [1] [%]	also measured
Cc1cc(C(C)(C)C)c(O)c(C(C)(C)C)c1 [BHT, 2,6-di-tert-butyl-4-methylphenol, reference compound]	5	–	hypocholesterolemic activity (in words) ([1]; this model (mouse)): no hypocholesterolemic activity
CCOC(=O)C(C)(C)Oc1ccc(Cl)cc1 [Clofibrate, reference compound]	–	–	plasma cholesterol values as compared to control ([1]; mouse): +4%
CCOP(=O)(OCC)C(NC(C)(C)C)c1cc(C(C)(C)C)c(O)c(C(C)(C)C)c1 (centres unmarked) [Compound 1]	> 25	8	–
CCCCCNC(c1cc(C(C)(C)C)c(O)c(C(C)(C)C)c1)P(=O)(OCC)OCC (centres unmarked) [Compound 2]	2.5	-8	–
CCOP(=O)(OCC)C(Nc1ccccc1)c1cc(C(C)(C)C)c(O)c(C(C)(C)C)c1 (centres unmarked) [Compound 3]	5.1	-30	decrease plasma cholesterol by ([1]; mouse, 10 days): more than 30%
CCOP(=O)(OCC)C(Nc1ccc(O)cc1)c1cc(C(C)(C)C)c(O)c(C(C)(C)C)c1 (centres unmarked) [Compound 4]	4.1	-15	–
CCOP(=O)(OCC)C(Nc1ccc(O)c(C)c1)c1cc(C(C)(C)C)c(O)c(C(C)(C)C)c1 (centres unmarked) [Compound 5]	1.3	2	–
CCOP(=O)(OCC)C(Nc1ccc(Cl)cc1)c1cc(C(C)(C)C)c(O)c(C(C)(C)C)c1 (centres unmarked) [Compound 6]	< 25	-17	–
CCOP(=O)(OCC)C(Nc1ccc(OC)cc1)c1cc(C(C)(C)C)c(O)c(C(C)(C)C)c1 (stereo not drawn) [Compound 7, Diethyl α-(3,5-di-tert-butyl-4-hydroxyphenyl)-N-(4-methoxyphenyl)-aminomethylphosphonate]	< 25	-47	decrease plasma cholesterol by ([1]; mouse, 10 days): more than 30%
CCOP(=O)(OCC)C(Nc1cccc(C)c1)c1cc(C(C)(C)C)c(O)c(C(C)(C)C)c1 (centres unmarked) [Compound 8]	< 25	–	–
CCOc1ccc(NC(c2cc(C(C)(C)C)c(O)c(C(C)(C)C)c2)P(=O)(OCC)OCC)cc1 (centres unmarked) [Compound 9]	< 25	-31	decrease plasma cholesterol by ([1]; mouse, 10 days): more than 30%
CCCCCc1ccc(NC(c2cc(C(C)(C)C)c(O)c(C(C)(C)C)c2)P(=O)(OCC)OCC)cc1 (centres unmarked) [Compound 10]	2.9	11	–
CCOP(=O)(OCC)C(Nc1ccc(N2C(=O)c3ccc(Cl)cc3C2=O)c(C)c1)c1cc(C(C)(C)C)c(O)c(C(C)(C)C)c1 (centres unmarked) [Compound 11]	2.7	–	–
CCOP(=O)(OCC)C(NCc1ccccc1)c1cc(C(C)(C)C)c(O)c(C(C)(C)C)c1 (centres unmarked) [Compound 12]	0.7	-23	–
CCOP(=O)(OCC)C(NCCc1ccccc1)c1cc(C(C)(C)C)c(O)c(C(C)(C)C)c1 (centres unmarked) [Compound 13]	4.9	-28	–
CCOP(=O)(OCC)C(NCCc1ccc(C)cc1)c1cc(C(C)(C)C)c(O)c(C(C)(C)C)c1 (centres unmarked) [Compound 14]	< 25	-6	–
CCOP(=O)(OCC)C(NCCc1ccc(O)cc1)c1cc(C(C)(C)C)c(O)c(C(C)(C)C)c1 (centres unmarked) [Compound 15]	< 25	-18	–
COP(=O)(OC)C(NCCc1ccc(Cl)cc1)c1cc(C(C)(C)C)c(O)c(C(C)(C)C)c1 (centres unmarked) [Compound 16]	4.9	-28	–
CCOP(=O)(OCC)C(NCCc1ccc(Cl)cc1)c1cc(C(C)(C)C)c(O)c(C(C)(C)C)c1 (stereo not drawn) [Compound 17, Diethyl α-(3,5-di-tert-butyl-4-hydroxyphenyl)-N-[2-(4-chlorophenyl)ethyl]-aminomethylphosphonate]	5.3	-43	decrease plasma cholesterol by ([1]; mouse, 10 days): more than 30%
CCCOP(=O)(OCCC)C(NCCc1ccc(Cl)cc1)c1cc(C(C)(C)C)c(O)c(C(C)(C)C)c1 (centres unmarked) [Compound 18]	2.9	-23	–
CC(C)OP(=O)(OC(C)C)C(NCCc1ccc(Cl)cc1)c1cc(C(C)(C)C)c(O)c(C(C)(C)C)c1 (centres unmarked) [Compound 19]	3	-33	decrease plasma cholesterol by ([1]; mouse, 10 days): more than 30%
CCCCOP(=O)(OCCCC)C(NCCc1ccc(Cl)cc1)c1cc(C(C)(C)C)c(O)c(C(C)(C)C)c1 (centres unmarked) [Compound 20]	3.4	-9	–
COP(=O)(OC)C(NCCCc1ccccc1)c1cc(C(C)(C)C)c(O)c(C(C)(C)C)c1 (centres unmarked) [Compound 21]	< 25	-33	decrease plasma cholesterol by ([1]; mouse, 10 days): more than 30%

SMILES	IC50 [2] [µM]	change in vivo at 180 mg/kg/day [1] [%]	also measured
CCOP(=O)(OCC)C(NCCCc1ccccc1)c1cc(C(C)(C)C)c(O)c(C(C)(C)C)c1 (stereo not drawn) [Compound 22, Diethyl α-(3,5-di-tert-butyl-4-hydroxyphenyl)-N-(3-phenytpropyl)aminomethylphosphonate]	4	–	Plasma Cholesterol (% Control) ([1]; 0.1% compound in food, 10 days, ca. 180 mg/kg daily, mouse): -53 % Control; decrease plasma cholesterol by ([1]; mouse, 10 days): more than 30%
CCCOP(=O)(OCCC)C(NCCCc1ccccc1)c1cc(C(C)(C)C)c(O)c(C(C)(C)C)c1 (centres unmarked) [Compound 23]	< 25	-4	–
CCOP(=O)(OCC)C(NCCN1CCCCC1)c1cc(C(C)(C)C)c(O)c(C(C)(C)C)c1 (centres unmarked) [Compound 34]	–	-5	–
CCOP(=O)(OCC)C(NCc1cc(C(C)(C)C)c(O)c(C(C)(C)C)c1)c1cc(C(C)(C)C)c(O)c(C(C)(C)C)c1 (stereo not drawn) [Compound 40, Diethyl α-(3,5-di-tert-butyl-4-hydroxyphenyl)-N-(3,5-di-tert-butyl-4-hydroxybenzyl)-aminomethylphosphonate]	–	-25	–
CCOP(=O)(OCC)C(c1cc(C(C)(C)C)c(O)c(C(C)(C)C)c1)N(Cc1ccccc1)C(C)=O (centres unmarked) [Compound 51]	< 25	–	–
CCOP(=O)(OCC)C(c1cc(C(C)(C)C)c(O)c(C(C)(C)C)c1)N(Cc1ccccc1)C(=O)C(F)(F)F (centres unmarked) [Compound 52]	< 25	–	–
CCOP(=O)(OCC)C(c1cc(C(C)(C)C)c(O)c(C(C)(C)C)c1)N(CCc1ccccc1)C(C)=O (centres unmarked) [Compound 53]	< 25	–	–
CCOP(=O)(OCC)C(c1cc(C(C)(C)C)c(O)c(C(C)(C)C)c1)N(CCc1ccccc1)C(=O)C(F)(F)F (centres unmarked) [Compound 54]	< 25	–	–
CCCCOP(=O)(OCCCC)C(c1cc(C(C)(C)C)c(O)c(C(C)(C)C)c1)N(CCc1ccc(Cl)cc1)C(=O)C(F)(F)F (centres unmarked) [Compound 55]	> 25	–	–
CCOP(=O)(OCC)C(c1cc(C(C)(C)C)c(O)c(C(C)(C)C)c1)N(C(=O)C(F)(F)F)C(Cc1ccccc1)c1ccccc1 (centres unmarked) [Compound 56]	< 25	–	–
CCOP(=O)(OCC)C(c1cc(C(C)(C)C)c(O)c(C(C)(C)C)c1)N(CCOc1ccccc1)C(=O)C(F)(F)F (centres unmarked) [Compound 57]	< 25	–	–
CCCCCc1ccc(N(C(=O)C(F)(F)F)C(c2cc(C(C)(C)C)c(O)c(C(C)(C)C)c2)P(=O)(OCC)OCC)cc1 (centres unmarked) [Compound 58]	< 25	–	–
CCOP(=O)(OCC)C(c1cc(C(C)(C)C)c(O)c(C(C)(C)C)c1)N(CCCc1ccccc1)C(=O)C(F)(F)F (stereo not drawn) [Compound 64, Diethyl α-(3,5-di-tert-butyl-4-hydroxyphenyl)-N-trifluoroacetyl-N-(3-phenylpropyl)-aminomethylphosphonate]	< 25	–	–
CCOP(=O)(OCC)C(c1cc(C(C)(C)C)c(O)c(C(C)(C)C)c1)N(CCCCc1ccccc1)C(=O)C(F)(F)F (centres unmarked) [Compound 66]	< 25	–	–
CCCCOc1ccc(C(NCCc2ccccc2)P(=O)(OCC)OCC)cc1 (centres unmarked) [Compound 69]	–	2	–
CCOP(=O)(OCC)C(N)c1cc(C(C)(C)C)c(O)c(C(C)(C)C)c1 (stereo not drawn) [Compound 83, Diethyl α-(3,5-di-tert-butyl4-hydroxyphenyl)-aminomethyl-phosphonate]	–	4	–
C=CCNC(c1cc(C(C)(C)C)c(O)c(C(C)(C)C)c1)P(=O)(OCC)OCC (stereo not drawn) [Compound 84, Diethyl α-(3,5-di-tert-butyl-4-hydroxyphenyl)-N-allyl-aminomethylphosphonate]	–	-19	–
CCOP(=O)(OCC)C(NC(=O)OCc1ccccc1)c1cc(C(C)(C)C)c(O)c(C(C)(C)C)c1 (stereo not drawn) [Compound 85, Diethyl α-(3,5-di-tert-butyl-4-hydroxyphenyl)-N-benzyloxycarbonyl-aminomethylphosphonate]	–	0	–
CCOP(=O)(OCC)C(NCc1ccncc1)c1cc(C(C)(C)C)c(O)c(C(C)(C)C)c1 (centres unmarked) [Compound 86]	–	-15	–
CCOP(=O)(OCC)C(NC1COC(C)(C)OC1c1ccccc1)c1cc(C(C)(C)C)c(O)c(C(C)(C)C)c1 (centres unmarked) [Compound 91]	–	-18	–
CC(C)OC(=O)C(C)(C)Oc1ccc(C(=O)c2ccc(Cl)cc2)cc1 [Fenofibrate, reference compound]	–	–	plasma cholesterol values as compared to control ([1]; mouse): -26%
Cc1ccc(C)c(OCCCC(C)(C)C(=O)O)c1 [Gemfibrozil, reference compound]	–	–	plasma cholesterol values as compared to control ([1]; mouse): -7%
